Legend:
Assay type in all cases: cell-based
[1] = test system: type I calli from the PHH corn line; test: Agrobacterium-mediated transformation of plant-phenolic pre-treated type I callus from corn; conditions: for Approximate mean transformation frequency with pretreatment: 5 days on 100-200 μM acetosyringone; for PAT-positive plant lines: about 4000 pre-treated callus fragments
Description: Type I callus fragments were obtained essentially as described in WO 92/09696. Immature embryos from corn line (Pa91xH99)xH99 (PHH-line) were excised from the kernel 9-12 days after pollination, surface sterilized and plated on Mahi1VII medium for the induction of type I callus. Type I callus was subcultured on the same medium with one month intervals for about two to six months. Next, type I callus was finely cut in fragments with an average length of about 1.5 mm, and the resulting fragments were incubated-for 5 days on LSIDhy1.5VII substrate supplemented with 100-200 μM acetosyringone. The pre-induced callus pieces were collected and without further wounding, immersed in a suspension of the appropriate Agrobacterium strain for about 3 to about 20 minutes. The bacterial suspension was obtained in the following way: bacteria were grown for 3 to 6 days on MAG medium [minimal A medium (Jeffrey Miller, 1972) supplemented with 2 g/L glucose] or AB medium (Chilton et al., 1974). The bacteria were harvested, and resuspended in liquid LSI substrate supplemented with 100-200 μM acetosyringone, at a concentration of about 5×10^9 cells/ml.
After immersion in the bacterial suspension, the callus fragments were co-cultivated on LSIIDhy1.5XI medium, supplemented with 100-200 μM acetosyringone, at about 25° C. for 3 to 6 days (3 days for LBA-type strain, 6 days for EHA-type strain).
After co-cultivation, the tissue was transferred to Ahx1.5VIIp500ino1000ppT10 and cultured for3 to 4 weeks. Proliferating, phosphinotricin (PPT)-resistant calli were excised and subcultured at least twice, with 3 week subculture intervals on Mh1VIIp500ppT5. Embryogenic PPT-resistant calli were plated on regeneration medium (A37VIIp500 ppT2.), and the embryogenic tissue was subcultured twice, with 10 to 14 day intervals, on the same medium. Small plants were transferred to glass containers containing A6%VIIp500ppT2 substrate for further growth, and developing shoots were then transferred to half-strength MS medium supplemented with 1.5% sucrose to allow further shoot elongation as well as rooting. Plants were tested for phosphinothricin acetyl transferase (PAT) activity, and PAT-positive plants were transferred to the greenhouse. PAT-positive plants were tested for the presence of the transgene by Southern hybridization.
Type I callus fragments were obtained as described in Example I and incubated for 5 days on LSIDhy1.5VII substrate supplemented with 100 μM of acetosyringone, followed by co-cultivation with Agrobacterium strain A3532 and A3638. For strain A3532 only I PAT-positive plant was obtained, even with acetosyringone pretreatment (transformation frequency<0.1%). However, the presence of the functional virB promoter preceding the virB11 open reading frame on the T-DNA vector, improved the transformation efficiency (see Table I) at least almost ten times.
Type I callus fragments were obtained as described in Example 1 and incubated for 5 days on LSIDhy1.5VII substrate supplemented with 100 μM of the plant phenolic compounds of Table II. Approximately 200 pre-induced callus fragments were co-cultivated with Agrobacterium strain A3637 (or A3638).
Type I callus fragments were obtained as described in Example 1 and incubated for 5 days on LSIDhy1.5VII substrate supplemented with either 200 μM of acetosyringone or a combination of 100 μM acetosyringone and 100 μM p-hydroxybenzoic acid. About 250 callus pieces were co-cultivated with Agrobacterium strain A3533. Whereas 2 shoot-regenerating lines (comprising 1 PAT-positive line) were obtained on PPT containing media after pre-induction on acetosyringone (frequency about 1%), 7 shoot regenerating lines (comprising 5 PAT-positive lines) were obtained on PPT containing media after pre-induction on acetosyringone plus p-hydroxybenzoic acid (frequency about 3%).

[2] = test system: type I calli obtained from corn plant line (Pa91xH99)xPa91 (PHP); test: Agrobacterium co-cultivation of acetosyringone pre-treated type I calli, PHP line
[3] = test system: type I calli obtained from corn plant line Pa91; test: Agrobacterium co-cultivation of acetosyringone pre-treated type I calli, Pa91 line
[4] = test system: type I callus from corn; test: Transformation by electroporation of acetosyringone pre-treated type I callus from corn; conditions: 5 days on 100 μM acetosyringone
Method: Finely chopped pieces of calli, derived from type I callus and pre-incubated for 5 days on 100 μM acetosyringone-containing medium, as described in Example 1, were subjected without further wounding to electroporation as described in […]/09696. Briefly, about 50 callus pieces were resuspended in 100 μl EPM-KCl buffer and preplasmolyzed for 3 hr at room temperature. Next the callus pieces were washed in EPM+KCl buffer and transferred to an electrocuvette in EPM+KCl buffer. Plasmid DNA (10 μg of pDE110) was added, and the DNA was incubated with the callus fragments for about 1 hr at room temperature. Electroporation was carried out using standard conditions (1 pulse with initial field strength 375 V/cm from a 900 μF capacitor). The calli were never kept on ice. Phosphinotricin-resistant calli were selected and plants regenerated as described ([…]/09696). Phosphinotricin acetyl transferase activity was detected as described ([…]/09696).

[5] = 5 days on 100 μM compound, approximately 200 callus fragments, strain A3637 (or A3638)
[6] = strain A3533, about 250 callus pieces, 200 μM acetosyringone or 100 μM acetosyringone + 100 μM p-hydroxybenzoic acid, 5 days
[7] = electroporation of about 530 callus pieces

SMILES: O=C(O)c1ccc(O)cc1O [2,4-dihydroxybenzoic acid, 2,4 dihydroxybenzoic acid]
- Number of PAT-positive lines [1, 5]: 1
- Transformation frequency [1, 5]: 0.5%

SMILES: O=C(O)c1ccc(O)c(O)c1 [3,4-dihydroxybenzoic acid]
- Number of PAT-positive lines [1, 5]: 2
- Transformation frequency [1, 5]: 1%

SMILES: COc1cc(C(C)=O)cc(OC)c1O [acetosyringone, 3,5-dimethoxy-4-hydroxyacetophenone]
- Number of PAT-positive lines [1, 5]: 2
- Transformation frequency [1, 5]: 1%
- Approximate mean transformation frequency with pretreatment ([1]; Agrobacterium strain A3533): 0.8%
- Approximate mean transformation frequency with pretreatment ([1]; Agrobacterium strain A3637): 0.8%
- Approximate mean transformation frequency with pretreatment ([1]; Agrobacterium strain A3638): 0.9%
- low concentration still giving a good effect on transformation efficiency ([1]; pretreatment medium): approximately 25 μM
- optimal concentration in the medium ([1]; pretreatment medium): approximately 200 μM
- PAT-positive lines ([1]; strain A3460, about 1700 pre-treated callus fragments): 5
- Transformation frequency ([1]; strain A3532, 5 days on 100 μM acetosyringone): < 0.1%
- PAT-positive lines [1, 6]: 1
- frequency [1, 6]: about 1%
- shoot-regenerating lines on PPT containing media [1, 6]: 2
- PAT-positive plant lines ([1]; strain A3533): 30
- PAT-positive plant lines ([1]; strain A3637): 33
- PAT-positive plant lines ([1]; strain A3638): 37
- average transformation frequencies ([1]; strains A3638, A3533 and A3637, about 4000 pre-treated callus fragments each): about 1%
- increase in transformation efficiency by pretreatment ([1]; versus no pretreatment, co-cultivation with Agrobacterium strains): at least three times
- effect of pre-treatment on transformation frequency [2]: Enhancement of transformation frequency
- effect of pre-treatment on transformation frequency [3]: Enhancement of transformation frequency
- PAT-positive plants [4, 7]: 4
- Transformation frequency [4, 7]: about 0.75%
- transformation frequency relative to callus not pre-treated ([4]; electroporation): about three times higher

SMILES: Oc1ccccc1O [catechol, 1,2-dihydroxybenzene]
- Number of PAT-positive lines [1, 5]: 1
- Transformation frequency [1, 5]: 0.5%

SMILES: O=C(O)c1cc(O)c(O)c(O)c1 [gallic acid, 3,4,5-trihydroxybenzoic acid]
- Number of PAT-positive lines [1, 5]: 3
- Transformation frequency [1, 5]: 1.5%

SMILES: O=C(O)c1ccc(O)cc1 [p-hydroxybenzoic acid, 4-hydroxybenzoic acid]
- Number of PAT-positive lines [1, 5]: 2
- Transformation frequency [1, 5]: 1%

SMILES: COc1cc(C=O)ccc1O [vanillin, 3-methoxy-4-hydroxybenzaldehyde]
- Number of PAT-positive lines [1, 5]: 4
- Transformation frequency [1, 5]: 2%

Source: patent publication US6372963B1, “Transformation method for plants” (Aventis CropScience N.V., priority 1998, dated 2002)
